{
  "source": "patent US20060069132A1",
  "about": "“Azolecarboxamide herbicides” (priority 2004, published 2006)",
  "key": {"corn": {"tested_on": "corn", "assay": "Test B pre-/postemergence herbicide test", "type": "in vivo, Zea mays", "outline": "(§1)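 Response was scored visually 13 to 15 days after treatment against untreated greenhouse controls, 0 meaning no effect and 100 complete control. Formulations (solvent mixture plus surfactant) went onto soil after planting, onto foliage of 1- to 4-leaf plants, and onto 2-leaf plants in a flooded paddy set including rice and barnyardgrass.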"}, "large crabgrass": {"tested_on": "large crabgrass", "assay": "Test B pre-/postemergence herbicide test", "type": "in vivo, Digitaria sanguinalis", "outline": "as §1"}, "Surinam grass": {"tested_on": "Surinam grass", "assay": "Test C pre-/postemergence herbicide test", "type": "in vivo, Urochloa decumbens", "outline": "(§2)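 Visual injury scores run from 0 (no effect) to 100 (complete control), assessed relative to untreated controls 12 to 14 days after treatment in the greenhouse. Chemicals were formulated in a non-phytotoxic solvent mixture with surfactant and applied to soil after planting or to emerged plants at the 1- to 4-leaf stage.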"}, "cocklebur": {"tested_on": "cocklebur", "assay": "Test C pre-/postemergence herbicide test", "type": "in vivo, Xanthium strumarium", "outline": "as §2"}, "eastern black nightshade": {"tested_on": "eastern black nightshade", "assay": "Test C pre-/postemergence herbicide test", "type": "in vivo, Solanum ptycanthum", "outline": "as §2"}, "pigweed": {"tested_on": "pigweed", "assay": "Test C pre-/postemergence herbicide test", "type": "in vivo, Amaranthus retroflexus", "outline": "as §2"}, "soybean": {"tested_on": "soybean", "assay": "Test C pre-/postemergence herbicide test", "type": "in vivo, Glycine max", "outline": "as §2"}, "velvetleaf": {"tested_on": "velvetleaf", "assay": "Test C pre-/postemergence herbicide test", "type": "in vivo, Abutilon theophrasti", "outline": "as §2"}, "[1]": {"settings": "125 g ai/ha, visual rating, scale 0 (no effect) to 100 (complete control), postemergence"}, "[2]": {"settings": "postemergence, 500 g ai/ha, scale 0 to 100, 0 is no effect, 100 is complete control"}, "[3]": {"settings": "62 g ai/ha, preemergence, scale 0 to 100"}, "[4]": {"settings": "250 g ai/ha, scale 0-100, preemergence"}, "[5]": {"settings": "500 g ai/ha, scale 0 to 100 (0 no effect, 100 complete control), visual, 12 to 14 days, preemergence"}, "[6]": {"settings": "Postemergence, 250 g ai/ha, scale 0 (no effect) to 100 (complete control)"}, "[7]": {"settings": "postemergence, 62 g ai/ha, scale 0 to 100"}, "[8]": {"settings": "125 g ai/ha, scale 0 (no effect) to 100 (complete control), visual, 12 to 14 days, preemergence"}, "[9]": {"settings": "Preemergence, 500 g ai/ha, scale 0 to 100, 0 no effect, 100 complete control"}},
  "data": [
    {"smiles": "CCC1=NN(C(C)(C)C)CC1C(=O)Nc1cc(C(=O)N2CCCC2)ccc1F", "note": "(racemic) [Compound 341]", "values": [
      {"measurement": "Corn plant response rating", "setting": "corn; [1]", "result": 0},
      {"measurement": "Corn plant response rating", "setting": "corn; [2]", "result": 10},
      {"measurement": "Plant response rating (0 to 100 scale), Crabgrass, Large", "setting": "large crabgrass; 125 g ai/ha, 0 is no effect, 100 is complete control, preemergence", "result": 90},
      {"measurement": "Crabgrass, Large plant response rating", "setting": "large crabgrass; [1]", "result": 10},
      {"measurement": "Plant response rating, Crabgrass, Large", "setting": "large crabgrass; 500 g ai/ha, visual rating, 0 = no effect, 100 = complete control, preemergence", "result": 100},
      {"measurement": "Crabgrass, Large plant response rating", "setting": "large crabgrass; [2]", "result": 20},
      {"measurement": "Plant response rating, Surinam Grass", "setting": "Surinam grass; [3]", "result": 60},
      {"measurement": "Plant response rating (0 = no effect, 100 = complete control), Surinam Grass", "setting": "Surinam grass; 125 g ai/ha, preemergence", "result": 95},
      {"measurement": "Plant response rating, Surinam Grass", "setting": "Surinam grass; [4]", "result": 100},
      {"measurement": "Plant response rating, Surinam Grass", "setting": "Surinam grass; [5]", "result": 100},
      {"measurement": "Plant response rating, Cocklebur", "setting": "cocklebur; [3]", "result": 0},
      {"measurement": "Plant response rating (0 = no effect, 100 = complete control), Cocklebur", "setting": "cocklebur; 125 g ai/ha, preemergence", "result": 10},
      {"measurement": "Plant response rating, Cocklebur", "setting": "cocklebur; [4]", "result": 50},
      {"measurement": "Plant response rating, Cocklebur", "setting": "cocklebur; [5]", "result": 100},
      {"measurement": "Plant response rating, Nightshade", "setting": "eastern black nightshade; [3]", "result": 50},
      {"measurement": "Plant response rating (0 = no effect, 100 = complete control), Nightshade", "setting": "eastern black nightshade; 125 g ai/ha, preemergence", "result": 55},
      {"measurement": "Plant response rating, Nightshade", "setting": "eastern black nightshade; [4]", "result": 100},
      {"measurement": "Plant response rating, Nightshade", "setting": "eastern black nightshade; [5]", "result": 100},
      {"measurement": "Plant response rating, Pigweed", "setting": "pigweed; [3]", "result": 95},
      {"measurement": "Plant response rating (0 = no effect, 100 = complete control), Pigweed", "setting": "pigweed; 125 g ai/ha, preemergence", "result": 95},
      {"measurement": "Plant response rating, Pigweed", "setting": "pigweed; [4]", "result": 100},
      {"measurement": "Plant response rating, Pigweed", "setting": "pigweed; [5]", "result": 100},
      {"measurement": "Plant response rating, Soybean", "setting": "soybean; [3]", "result": 0},
      {"measurement": "Plant response rating (0 = no effect, 100 = complete control), Soybean", "setting": "soybean; 125 g ai/ha, preemergence", "result": 20},
      {"measurement": "Plant response rating, Soybean", "setting": "soybean; [4]", "result": 70},
      {"measurement": "Plant response rating, Soybean", "setting": "soybean; [5]", "result": 100},
      {"measurement": "Plant response rating, Velvetleaf", "setting": "velvetleaf; [3]", "result": 30},
      {"measurement": "Plant response rating (0 = no effect, 100 = complete control), Velvetleaf", "setting": "velvetleaf; 125 g ai/ha, preemergence", "result": 60},
      {"measurement": "Plant response rating, Velvetleaf", "setting": "velvetleaf; [4]", "result": 100},
      {"measurement": "Plant response rating, Velvetleaf", "setting": "velvetleaf; [5]", "result": 100}
    ]},
    {"smiles": "CCNC(=O)c1ccnc(NC(=O)c2cc(C(C)(C)C)nn2CC)c1", "note": "[Compound 152]", "values": [
      {"measurement": "Corn plant response rating", "setting": "corn; [6]", "result": 30},
      {"measurement": "Corn plant response rating", "setting": "corn; [7]", "result": 20},
      {"measurement": "Crabgrass, Large plant response rating", "setting": "large crabgrass; [6]", "result": 20},
      {"measurement": "Crabgrass, Large plant response rating", "setting": "large crabgrass; [7]", "result": 10},
      {"measurement": "Plant response rating, Surinam Grass", "setting": "Surinam grass; [3]", "result": 40},
      {"measurement": "Plant response rating, Surinam Grass", "setting": "Surinam grass; [8]", "result": 60},
      {"measurement": "Surinam Grass plant response rating", "setting": "Surinam grass; [9]", "result": 100},
      {"measurement": "Plant response rating, Cocklebur", "setting": "cocklebur; [8]", "result": 65},
      {"measurement": "Plant response rating, Cocklebur", "setting": "cocklebur; 250 g ai/ha, scale 0 to 100 (0 no effect, 100 complete control), visual, 12 to 14 days, preemergence", "result": 65},
      {"measurement": "Cocklebur plant response rating", "setting": "cocklebur; [9]", "result": 100},
      {"measurement": "Plant response rating, Nightshade", "setting": "eastern black nightshade; [3]", "result": 80},
      {"measurement": "Plant response rating, Nightshade", "setting": "eastern black nightshade; [8]", "result": 90},
      {"measurement": "Nightshade plant response rating", "setting": "eastern black nightshade; [9]", "result": 100},
      {"measurement": "Plant response rating, Pigweed", "setting": "pigweed; [3]", "result": 85},
      {"measurement": "Plant response rating, Pigweed", "setting": "pigweed; [8]", "result": 100},
      {"measurement": "Pigweed plant response rating", "setting": "pigweed; [9]", "result": 100},
      {"measurement": "Plant response rating, Soybean", "setting": "soybean; [3]", "result": 0},
      {"measurement": "Plant response rating, Soybean", "setting": "soybean; [8]", "result": 10},
      {"measurement": "Soybean plant response rating", "setting": "soybean; [9]", "result": 100},
      {"measurement": "Plant response rating, Velvetleaf", "setting": "velvetleaf; [3]", "result": 0},
      {"measurement": "Plant response rating, Velvetleaf", "setting": "velvetleaf; [8]", "result": 100},
      {"measurement": "Velvetleaf plant response rating", "setting": "velvetleaf; [9]", "result": 100}
    ]}
  ]
}
